# Data published in US12343397B2, “Drug-resistant immune cells and methods of use thereof” (Regents of the University of Minnesota, priority 2018, dated 2025).
# What was measured:
# [1] = system: lethally irradiated BALB/c recipients of C57BL/6 (B6) donor bone marrow + T cells; test: Steroid GVHD prophylaxis and therapy in allogeneic BMT recipients; assay type: in vivo, mouse; details: for GVHD therapy outcome / survival vs vehicle: 10 mg/kg/day day 3-28, 1.5×10^6 T cells
# Method: FIG. 8 depicts steroid dose responses for GVHD prophylaxis in allogeneic BMT recipients. n=8 per group. BALB/c mice were lethally irradiated, given B6 BM+2 M T cells and steroids at the indicated doses from day 1-28. A low rapamycin dose (day 0-14, 3 times a week through day 27) was used as a comparator.
# FIG. 9 depicts steroid based GVHD therapy in allogeneic BMT recipients. n=8 per group. BALB/c mice were lethally irradiated, given B6 BM+1.5 M T cells and steroids at 10 mg/kg/day day 3-28 or 4-28 as indicated.
# FIG. 10 depicts steroid based GVHD therapy in allogeneic BMT recipients. n=15 (BM-Circles), 16 (Vehicle-Squares) and 25 (Prednisolone-Triangles). BALB/c mice were lethally irradiated, given B6 BM+1.5 M T cells and steroids at 10 mg/kg/day day 3-28.
# To test whether gene modified (GR2-CRISPR/Cas9) or gene edited (GR2-CRISPR/Cas9/AAV-CaN mut.) Tregs have increased efficacy in vivo in the presence of glucocorticoid, how glucocorticoid (methyl-prednisolone) effects GVHD in preclinical mouse models was first determined. […] For these reasons, as well as the more logistically feasible and cost effective benefits of an allogeneic GVHD model, optimized steroid use in allogeneic recipients for GVHD prevention and therapy were first tested, and then applied to a xenogeneic model to enable testing of the human Treg product. Using lethally irradiated BALB/c recipients of C57BL/6 (B6) donor bone marrow+2×10^6 T cells, methyl-prednisolone at doses of 1, 3, and 6 mg/kg/dose were tested days 1-28 vs. rapamycin at 0.5 mg/kg/day, days 0-14 then 3×/week through day 27. The T cell dose was reduced to 1.5×10^6 and moved to GVHD therapy beginning on day 3 or day 4 (rather than day 1 prophylaxis) and compared no treatment to vehicle to prednisolone (n=8/group).
# Delaying prednisolone treatment until day 4 was ineffective. Next, an experiment was performed to determine whether prednisolone at 10 mg/kg d3-28 was reproducible, and it was observed that this was the case (FIG. 10).
# [2] = system: xeno-GVHD model; test: Xenogeneic GVHD model (NSG mice given human PBMC); assay type: in vivo; details: 30 mg/kg, day 0-28
# Method: FIGS. 11A-11D depicts the monitoring of GVHD in mice. Human PBMC (15×10^6) were injected into irradiated (50 rad) NSG mice±methylprednisolone (15 mg/kg), and signs of GVHD were monitored. FIG. 11A depicts a schematic illustration of the experiments indicating cohorts (n=7 mice each), dosing schedule, and analysis points. FIG. 11B depicts Kaplan-Meier survival curves for mice receiving PBMC only, or PBMC+prednisolone (p=0.104). FIG. 11C depicts disease progression monitored by weight loss (p=not significant). FIG. 11D depicts disease progression monitored by quantitating the number of PBMC-derived CD45+, CD4+, CD8+, and CD4+Foxp3+ T cells (p<0.03, <0.05, <0.03, and not significant, respectively). Animals were bled on day 19 for assessment.
# FIGS. 12A-12D depicts the monitoring of GVHD in mice. […] FIG. 12B depicts Kaplan-Meier survival curves for mice receiving PBMC only, or PBMC+CNI (PBMC only vs. FK506 (36 mg/kg), p≤0.04). FIG. 12C depicts disease progression monitored by weight loss (p=not significant). FIG. 12D depicts disease progression monitored by quantitating the number of PBMC-derived CD45+, CD4+, CD8+, and CD4+Foxp3+ T cells (p<0.03, <0.05, <0.02, and not significant, respectively). Animals were bled on day 18 for assessment.
# A follow up study has shown that xeno-GVHD pathology induced with 200 rad+1×10^7 human PBMC is more reproducible, and median survival is reduced from ˜25 days to ˜20 days.
# [3] = system: exon 2 of NR3C1; test: Surveyor nuclease assay of NR3C1 gRNA candidates in human primary T-cells; assay type: cell-based; details: Cas9 with gRNA
# Method: FIGS. 3A-3D depicts the process of gene editing of NR3C1 glucocorticoid receptor by CRISPR guide RNA and Cas9. FIG. 3A depicts a schematic illustrating the process of gene transfer. T cells or Tregs were harvested and activated with CD3/CD28 beads for 48 h (fresh) or 72 h (frozen). The Neon electroporation device was used to deliver Cas9 mRNA or protein with a gene specific guide RNA. FIG. 3B depicts a schematic illustrating NR3C1 gene targeting. Four sites in exon 2 were identified and tested. Four candidates were identified. The candidates were tested using the Surveyor method. FIG. 3C depicts a schematic illustrating the Surveyor assay. Gene modified (“mutant amplicon”) and unmodified (“wild type amplicon”) are hybridized resulting in homo- or heteroduplexes. Heteroduplexes caused by pairing of gene edited and wild type sequences are cleaved by the Surveyor enzyme resulting in predictable DNA fragments.
# Using these parameters the use of CRISPR/Cas9 engineering of T-cells was pursued using the experimental schema as shown in FIG. 3A. Human primary T-cells were grown in the presence of IL-2 and activated with CD3/CD28 beads for 48-72 hours. The CRISPR/Cas9 reagents used a guide RNA transcript (Synthego) and recombinant Cas9 peptide (Aldevron) that were delivered using the Neon electroporation device (ThermoFisher). […]
# [4] = system: NR3C1; test: Base editing of NR3C1 in Tregs (Sanger sequencing, EditR); assay type: cell-based, human; details: Tregs electroporated with base editor mRNA and guide RNA
# Source text: Treg cells were base edited by electroporation of the base editor as protein or mRNA encoding said base editor, along with a guide RNA to target bases for editing with said base editor. The genomic DNA of the edited cells was then isolated and the target locus was PCR amplified. The PCR amplified locus was then sequenced by Sanger sequencing. Base conversion was observed by identifying multiple peaks at the target site. The PCR amplicon sequence data then underwent decomposition using the EDITR method to quantify base editing frequency (see, Kluesner et al. “EditR: A novel base editing quantification software using Sanger sequencing”.DOI: 10.1101/213496.2017). For FIGS. 19-22, and 24-27, the base edited sequences are marked by red open boxes.
# FIG. 16 depicts a schematic showing base editing wherein the CRISPR deactivated or nicking DNA binding domain is a dCas9, and the base-editing domain is a cytidine deaminase. Base editors can be delivered as RNP complexes whereby the guide RNA may or may not be modified with phosphorothioate bonds to prevent intracellular degradation by endogenous RNAses. […] Further, the sequences at exon:intron boundaries defined as splice donors and acceptors that are required for intron excision and proper open reading frame orientation and expression were also targeted for conversion in order to disrupt splicing. […]
# [5] = system: Tregs; test: Survival of CRISPR/Cas9 NR3C1 knockout Tregs ± Dexamethasone; assay type: cell-based, human; details: Tregs electroporated with CRISPR/Cas9 RNP; Dexamethasone 30 μg/ml, 48 hours
# Method: FIGS. 4A-4D depicts CRISPR/Cas9-mediated NR3C1 knockout in Tregs. Guide RNA candidates GR1 and GR2 were electroporated into activated Tregs as a ribonucleoprotein particle (RNP) with the Cas9 peptide. FIG. 4A depicts a schematic illustrating the culture process. FIG. 4B depicts a plot assessing the survival of Tregs after 72 h 30 μg/mL of Dexamethasone was added in the conditions as indicated. […] The NR3C1 locus was amplified from the pool of cells and indel analysis was performed by TIDE. The total gene modification rates were 35% and 44% for the pre- and post-Dexamethasone cells, respectively. The graph corresponds to the indel pattern observed in each population. […]
# To determine whether the GR1 and GR2 guides were also capable of knocking out the NR3C1 locus in cultures of clinically-relevant Tregs, banked Tregs were thawed and re-stimulated with anti-CD3/28 beads in high dose IL-2 (300 U/ml). […] After 2 days, Treg cultures were harvested and were re-cultured±Dexamethasone (30 μg/ml) for an additional 48 hours (7 days total), at which time cultures were harvested, and relative survival was assessed by flow cytometry using a viability dye and counting beads. […] As such, the indel pattern using a sequence trace decomposition algorithm called TIDE (tracking of indels by decomposition) was assessed. Pre- and post-Dexamethasone exposure samples were analyzed (FIGS. 4C and 4D, respectively). […]
# [6] = system: NR3C1 locus; test: Indel analysis of the NR3C1 locus by TIDE; assay type: cell-based, human
# Method: FIGS. 4A-4D depicts CRISPR/Cas9-mediated NR3C1 knockout in Tregs. Guide RNA candidates GR1 and GR2 were electroporated into activated Tregs as a ribonucleoprotein particle (RNP) with the Cas9 peptide. FIG. 4A depicts a schematic illustrating the culture process. FIG. 4B depicts a plot assessing the survival of Tregs after 72 h 30 μg/mL of Dexamethasone was added in the conditions as indicated. […] The NR3C1 locus was amplified from the pool of cells and indel analysis was performed by TIDE. The total gene modification rates were 35% and 44% for the pre- and post-Dexamethasone cells, respectively. The graph corresponds to the indel pattern observed in each population. Without being bound by any theory, it is predicted that out of frame indels (e.g., those non-divisible by three) will result in gene inactivation. Y-axis indicates the number of indels as a total percentage. X-axis indicates indels relative to unmodified (shown as bar in position 0). Deletions are shown to the left of the 0 position and each bar is between 1-10 bp away from the target site. Insertions of +1 bp are shown to the right of the 0 position. Asterisks show +1, −1, and −7 bp insertions/deletions and the frequency of these events increased with Dexamethasone exposure (comparing FIG. 4C with FIG. 4D), Dark black bars in FIGS. 4C-4D indicate editing events <0.5%.
# To determine whether the GR1 and GR2 guides were also capable of knocking out the NR3C1 locus in cultures of clinically-relevant Tregs, banked Tregs were thawed and re-stimulated with anti-CD3/28 beads in high dose IL-2 (300 U/ml). On day 3, the Tregs were electroporated as above in the absence or presence of GR1 or GR2 GRISPR/Cas9 RNP and returned to culture in optimal expansion conditions. After 2 days, Treg cultures were harvested and were re-cultured±Dexamethasone (30 μg/ml) for an additional 48 hours (7 days total), at which time cultures were harvested, and relative survival was assessed by flow cytometry using a viability dye and counting beads. The dose of 30 μg/mL was identified by performing beta testing in Jurkat and primary T-cells that had undergone CRISPR/Cas9 gene modification and Dexamethasone dosing from 0-100 μg/mL. […] CRISPR/Cas9 gene repair by non-homologous endjoining results in insertions and deletions (indel) proximal to the gRNA binding site. As such, the indel pattern using a sequence trace decomposition algorithm called TIDE (tracking of indels by decomposition) was assessed. Pre- and post-Dexamethasone exposure samples were analyzed (FIGS. 4C and 4D, respectively). The frequency of out of frame indels that are predicted to result in gene inactivation in Tregs prior to Dexamethasone addition was ˜35%, which is similar to what was experimentally observed for peripheral blood T cells treated with GR2 GRISPR/Cas9 reagents (˜40%). Following culture in Dexamethasone, the frequency of indels increased to 44%. Without being bound by any theory, this indicates preferential survival of gene modified Tregs.
# [7] = system: exon 2 of the NR3C1 gene; test: HDR in Tregs, inside-out PCR and Sanger sequencing; assay type: cell-based, human; details: AAV-6 donor at various MOI
# Method: FIGS. 5A-5C depicts homology directed repair (HDR) in Tregs. FIG. 5A depicts the gene targeting strategy. A calcineurin resistant gene co-expressed with GFP was designed such that it could be targeted to exon 2 of the NR3C1 gene resulting in a loss of 21 amino acids. The donor was encapsulated in AAV-6 particles and screening was performed using an inside/out PCR with primers (indicated by horizontal arrows) within the donor and outside of the donor at the target locus. FIG. 5B depicts gene targeting optimization. Activated Tregs were electroporated with NR3C1 Cas9 RNPs and the different indicated amounts of AAV-6 donor were added. Inside/out PCR results are shown with Sanger sequencing confirmation of the junction between the donor and the adjacent locus sequence shown in FIG. 5C.
# To achieve dual drug (steroid and calcineurin inhibitor) resistance, Jurkat and primary T-cells were used to define the conditions for optimal homology directed repair (HDR). Cas9 mRNA and Cas9 RNP approaches were compared and assessed for their ability to facilitate HDR using a reporter HDR construct at the human AAVS1 locus. […] Flanking the calcineurin resistance gene were donor targeting arms homologous to the NR3C1 gene such that insertion disrupted exon 2 with concomitant deletion of 21 amino acids (FIG. 5A). […]
Compound,GVHD therapy outcome / survival vs vehicle [1],GVHD therapy outcome / survival vs vehicle ([1]; listed as Prednisolone),GVHD therapy outcome ([1]; treatment delayed until day 4),average weight [2],survival advantage [2],median survival ([2]; controls 29 days),human CD4+ and CD8+ T cells in the blood ([2]; day 19),nuclease activity (Surveyor DNA fragmentation products) [3],base editing outcome at the genetic locus [4],survival in the presence of Dexamethasone [5],frequency of indels ([6]; Tregs following culture in Dexamethasone),frequency of out of frame indels ([6]; Tregs prior to Dexamethasone addition),frequency of out of frame indels ([6]; peripheral blood T cells),"total gene modification rate ([6]; post-Dexamethasone cells, FIG. 4D)","total gene modification rate ([6]; pre-Dexamethasone cells, FIG. 4C)",HDR by inside-out PCR [7]
C[C@]12C=CC(=O)C=C1CC[C@@H]1[C@@H]2[C@@H](O)C[C@@]2(C)[C@H]1CC[C@]2(O)C(=O)CO [prednisolone],improved outcome,significantly better than vehicle control,ineffective,not significantly different than controls,did not offer a survival advantage,25 days,significantly more human CD4+ and CD8+ T cells,,,,,,,,,
"GR1: gRNA AACCAAAAGTCTTCGCTGCT (anti-sense), exon 2 of NR3C1 (guide AACCAAAAGUCUUCGCUGCU; RNA, backbone not given here; 5' and 3' phosphorothioate bonds)",,,,,,,,exhibited the highest activity levels,premature TAA stop codon,,,,,,,
"GR2: gRNA TTGAGAAGCGACAGCCAGTG (anti-sense), exon 2 of NR3C1 (guide UUGAGAAGCGACAGCCAGUG; RNA, backbone not given here; 5' and 3' phosphorothioate bonds)",,,,,,,,exhibited the highest activity levels,premature TAG stop codon,significantly increased survival,44%,~35%,~40%,44%,35%,HDR was observed in Tregs at each MOI
